# In patent publication US20230382915A1, “GCN2 AND PERK KINASE INHIBITORS AND METHODS OF USE THEREOF” (Deciphera Pharmaceuticals, LLC, priority 2021, published 2023):
# Assays:
# [1] = test system: GA-10 Burkitt lymphoma cells; test: Cell proliferation, combination with standard of care, GA-10; format: cell-based; conditions: Homo sapiens, with 50 nM dexamethasone, 96 h, FIG. 6C, read-out: inhibition of cell proliferation IC50, combination treatment
# Experimental: (§1) H929, RPMI8226, GA-10 and DoHH-2 cells (catalog #CRL-9068) were obtained from the American Type Culture Collection (ATTC, Manassas, VA). H929 Cells were maintained in RPMI-1640 medium supplemented with 20% heat-inactivated fetal bovine serum (catalog #A3840002, ThermoFisher Scientific, Waltham, MA), 1% Penicillin/Streptomycin/L-Glutamine (catalog #10378016, ThermoFisher Scientific, Waltham, MA), and 0.05 mM 2-mercaptoethanol (catalog #21985-023, ThermoFisher Scientific, Waltham, MA). […]
# (§2) For cell proliferation assay appropriate number of cells (Forty thousand cells for H929. Twenty thousand cells for RPMI8226 and GA-10. Eight thousand cells for DoHH-2) were seeded per well in 200 μL in respective medium were dispensed into a 96-well black clear bottom plate. […] Plates were read on a Synergy2 or equivalent reader (Biotek, Winooski VT) using an excitation of 540 nm and an emission of 600 nm. At the end of the incubation of DoHH-2, cell viability was determined using CellTiter-Glo® assay (Promega, Madison, WI). Luminescence was measured using EnVision MultiLabel Reader (PerkinElmer, Waltham, MA). Data was analyzed using GraphPad Prism software (GraphPad, San Diego, CA) to calculate IC50 values.
# [2] = test system: ATF4 levels in HT-1080 fibrosarcoma xenograft; test: HT-1080 fibrosarcoma xenograft PK/PD model; format: in vivo, mice
# Experimental: The HT-1080 xenograft model was performed in compliance with all the laws, regulations and guidelines of the National Institutes of Health (NIH) and with the approval of the Animal Care and Use Committee of Labcorp (Ann Arbor, MI), an AAALAC accredited facility. Food and water were provided ad libitum. […] Female nude mice (6-7 weeks old) were inoculated subcutaneously just below the right high axilla with two million cells in Dulbecco's Phosphate Buffered Saline, using a 27-gauge needle and syringe. When tumor burdens reached 150 mm 3 on average on day 6, mice were randomly assigned into groups such that the mean tumor burden for all groups was within 10% of the overall mean tumor burden for the study population. Groups were treated on days 6-11 as follows: vehicle control (dosed orally) (n=9); Compound 2 dosed orally at 10 mg/kg BID (n=9); Compound 2 dosed orally at 5 mg/kg BID; Compound 2 dosed orally at 1 mg/kg BID (n=9) prior to sample harvest at 2, 6 and 10 h post dose on day 11. Blood samples were collected in K2EDTA tubes and processed into plasma, snap frozen in liquid nitrogen then stored at −80° C. Plasma samples were subjected to pharmacokinetic analysis using liquid chromatography coupled with tandem mass spectrometry analysis (Cayman Chemical, Ann Arbor, MI). Tumors were harvested and powdered over liquid nitrogen in covaris bags and stored at −80° C. For tissue sample processing roughly 30 mg of tumor tissue was lysed in MPER lysis buffer (Thermo Fisher Scientific, Waltham, MA) supplemented with 3× Halt protease inhibitor, 3×Halt phosphatase inhibitor, 3× Sigma phosphatase inhibitor cocktail 2 and 3×EDTA on ice then homogenized using Bead Ruptor 96 (Omni, Kennesaw, GA). […] Protein concentrations were determined using BCA protein assay kit (Thermo Fisher Scientific, Waltham, MA). […] Samples were resolved using SDS-PAGE then analyzed using Western blot to quantify ATF4 and beta-Actin (Cell Signaling Technology, Danvers, MA). […] Data was analyzed using GraphPad Prism software (GraphPad, San Diego, CA) to calculate % inhibition.
# [3] = test system: Follicular lymphoma cells; test: Cell proliferation, combination with standard of care, follicular lymphoma; format: cell-based; conditions: with 41 nM ibrutinib, 96 h, FIG. 6D; read-out: inhibition of cell proliferation IC50, combination treatment
# Experimental: as §1, §2
# [4] = molecular target: Recombinant GCN2 (EIF2AK4) (Homo sapiens (Human), UniProt Q9P2K8); test: Recombinant GCN2 activation assay; format: biochemical; conditions: FIG. 9A
# Sequence of Recombinant GCN2 (EIF2AK4) (Q9P2K8 whole entry): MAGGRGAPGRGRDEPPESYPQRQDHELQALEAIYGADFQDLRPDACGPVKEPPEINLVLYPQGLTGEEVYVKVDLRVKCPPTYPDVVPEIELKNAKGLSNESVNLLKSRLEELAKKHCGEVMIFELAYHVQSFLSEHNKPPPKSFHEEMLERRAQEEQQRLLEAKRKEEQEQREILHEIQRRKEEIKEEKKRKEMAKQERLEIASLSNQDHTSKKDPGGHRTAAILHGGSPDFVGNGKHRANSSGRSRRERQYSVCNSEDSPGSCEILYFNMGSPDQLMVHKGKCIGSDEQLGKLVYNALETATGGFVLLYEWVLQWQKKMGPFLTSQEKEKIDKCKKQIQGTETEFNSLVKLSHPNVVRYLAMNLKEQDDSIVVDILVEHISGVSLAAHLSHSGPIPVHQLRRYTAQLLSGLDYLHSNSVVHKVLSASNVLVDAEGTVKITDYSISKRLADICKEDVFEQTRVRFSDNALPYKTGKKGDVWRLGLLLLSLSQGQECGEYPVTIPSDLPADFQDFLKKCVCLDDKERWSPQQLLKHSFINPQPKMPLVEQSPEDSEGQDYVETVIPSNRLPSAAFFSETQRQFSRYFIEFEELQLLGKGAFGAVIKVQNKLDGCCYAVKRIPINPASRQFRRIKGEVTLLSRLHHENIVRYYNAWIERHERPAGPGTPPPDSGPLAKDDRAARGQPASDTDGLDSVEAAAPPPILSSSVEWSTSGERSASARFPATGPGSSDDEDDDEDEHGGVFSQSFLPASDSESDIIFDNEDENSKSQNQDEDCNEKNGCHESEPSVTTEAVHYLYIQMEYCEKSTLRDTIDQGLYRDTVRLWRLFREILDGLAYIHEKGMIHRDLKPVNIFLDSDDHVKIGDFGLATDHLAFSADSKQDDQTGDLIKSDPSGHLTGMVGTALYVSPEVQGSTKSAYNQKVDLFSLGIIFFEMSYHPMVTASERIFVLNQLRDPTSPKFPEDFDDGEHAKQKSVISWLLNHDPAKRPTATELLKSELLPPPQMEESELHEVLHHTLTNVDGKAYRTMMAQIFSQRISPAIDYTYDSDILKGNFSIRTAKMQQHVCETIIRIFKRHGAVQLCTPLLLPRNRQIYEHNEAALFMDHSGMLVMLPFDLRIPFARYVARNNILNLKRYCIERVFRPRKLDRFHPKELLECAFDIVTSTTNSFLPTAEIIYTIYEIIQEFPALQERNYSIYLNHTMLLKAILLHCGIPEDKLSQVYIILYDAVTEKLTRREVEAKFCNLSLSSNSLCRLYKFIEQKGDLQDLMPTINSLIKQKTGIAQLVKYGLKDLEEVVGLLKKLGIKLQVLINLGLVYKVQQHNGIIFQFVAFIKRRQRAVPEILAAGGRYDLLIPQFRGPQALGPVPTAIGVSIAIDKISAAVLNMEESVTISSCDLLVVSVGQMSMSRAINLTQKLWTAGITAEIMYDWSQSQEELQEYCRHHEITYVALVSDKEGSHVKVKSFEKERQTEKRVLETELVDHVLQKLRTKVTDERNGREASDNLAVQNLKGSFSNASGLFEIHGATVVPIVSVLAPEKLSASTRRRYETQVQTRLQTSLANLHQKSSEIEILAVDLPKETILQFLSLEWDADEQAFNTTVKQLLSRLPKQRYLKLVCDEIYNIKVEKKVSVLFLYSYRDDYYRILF
# Experimental: Recombinant GCN2 (EIF2AK4) (Carna Biosciences, Japan) was dephosphorylated by incubating with 16,000 units of lambda phosphatase (New England Biolabs, Ipswich, MA) for 3 h at 30° C. in 1×phosphatase reaction buffer. To measure Compound 2-mediated GCN2 modulation, 12.5 nM dephosphorylated GCN2 diluted in Kinase buffer (Invitrogen, Carlsbad, CA) was incubated with Compound 2 titer for 30 min at RT. Following incubation, 130 nM substrate (GFP-eIF2α) (ThermoFisher Scientific, Waltham, MA) and 0.05 mM ATP was added to the mixture and incubated for 60 min at RT. Reaction was stopped by the addition of 10 mM EDTA and phosphorylated eiF2a substrate was detected using 2 nM LanthaScreen Tb-anti-peIF2α (pSer52) antibody (ThermoFisher Scientific, Waltham, MA) then incubated in the dark. After a 60 min incubation at room temperature, TR-FRET was monitored using an excitation wavelength of 340 nm and emission wavelengths of 490 nm and 520 nm.
smiles,measurement,setting,value
"Cn1cc(-c2cccc(NS(=O)(=O)c3cc(Cl)cc(CO)c3Cl)c2F)c2c(N)ncnc21 [Example 2, N-(3-(4-amino-7-methyl-7H-pyrrolo[2,3-d]pyrimidin-5-yl)-2-fluorophenyl)-2,5-dichloro-3-(hydroxymethyl)benzenesulfonamide]",IC50,[1],4 nM
same,upregulation of ATF4 levels compared to vehicle control,[2]; 1 mg/kg BID orally,3 fold
same,upregulation of ATF4 levels compared to vehicle control,[2]; 5 mg/kg BID orally,3.5 fold
same,upregulation of ATF4 levels compared to vehicle control,[2]; 10 mg/kg BID orally,4.5 fold
same,IC50,[3],4 nM
same,concentrations at which GCN2 enzyme is activated,[4],0.05 to 3 nM
same,concentrations at which recombinant GCN2 activity is inhibited,[4],above 10 nM
same,"activation of GCN2 enzyme, % of control",[4]; at 0.05-3 nM,up to 250 % of control
